From patent US7077859B2, “Apparatus and methods for variably controlled substance delivery from implanted prostheses” (Avantec Vascular Corporation, priority 2000, dated 2006)

Legend:
[1] = system: porcine smooth muscle cell cultures; assay: Thymidine incorporation (proliferation) in porcine smooth muscle cell cultures; format: cell-based; settings: for IC50: Sus scrofa, amount of incorporated thymidine, concentrations 0.003-156 micromolar, FIGS. 20A-B, read-out: IC50 (concentration at which 50% of the cells are prevented from proliferating)
Procedure: In order to assess the effect of therapeutic capable agents of the present invention on cell cultures, samples of 5 sets of therapeutic capable agents, as listed below, in varying concentrations were prepared and added to different groups of porcine smooth muscle cell cultures according to standard procedures. Set A, B, C, D, and E corresponded to therapeutic capable agent sets: Mycophenolic acid & Dexamethasone; Mycophenolic acid & Triptolide; Wortmannin and Methotrexate; Triptolide; Mycophenolate Mofetil; respectively. The amount of incorporated thymidine for the different samples of varying concentrations (0.003, 0.031, 0.31, 1.6, and 3.1 micromolar) was measured.
In another group of therapeutic capable agents, the amount of incorporated thymidine for samples of varying concentrations (0.003, 0.031, 0.31, 1.6, 3.1, 31, and 156 micromolar) was measured.

[2] = Half life of mycophenolic acid bound to BSA (MPA-BSA), assayed by liquid chromatography; format: in vitro ADME
Excerpt: The MPA-BSA has an increases half time (as measured by assaying methods such as liquid chromotography) as compared to mycophenolic acid alone and as shown in the table below: […]

In the case of `C[C@@H]1C[C@H]2[C@@H]3CCC4=CC(=O)C=C[C@]4(C)[C@@]3(F)[C@@H](O)C[C@]2(C)[C@@]1(O)C(=O)CO` [Dexamethasone], the Cell death (cell cultures) is reported as “did not lead to significant cell death”.

With `CN(Cc1cnc2nc(N)nc(N)c2n1)c1ccc(C(=O)N[C@@H](CCC(=O)O)C(=O)O)cc1` [Methotrexate] the Cell death (cell cultures) was “did not lead to significant cell death”.

`C[C@H]1C[C@@H]2[C@H]([C@@H](O)C[C@@]3(C)[C@H]2CC[C@]3(O)C(=O)CO)[C@@]2(C)C=CC(=O)C=C12` [Methylprednisolone, methylprednisolone] showed an IC50 [1] of 1000 nM.

For `COc1c(C)c2c(c(O)c1C/C=C(\C)CCC(=O)OCCN1CCOCC1)C(=O)OC2` [Mycophenolate Mofetil], the “Effectiveness on cell proliferation (incorporated thymidine)” value ([1]; porcine smooth muscle cell cultures, 0.003-3.1 micromolar, FIG. 19E) was “may not be as effective in the absence of a bio-condition”.

In the case of `COc1c(C)c2c(c(O)c1C/C=C(\C)CCC(=O)O)C(=O)OC2` [Mycophenolic acid, mycophenolic acid], the IC50 [1] is reported as 1000 nM and the Cell death (cell cultures) is reported as “did not lead to significant cell death”.

In the case of `CC(C)[C@]12O[C@H]1[C@@H]1O[C@]13[C@]1(O[C@H]1C[C@H]1C4=C(CC[C@@]13C)C(=O)OC4)[C@@H]2O` [Triptolide], the Cell death (cell cultures) is reported as “did not lead to significant cell death”.

For “MPA-BSA: mycophenolic acid (MPA) bound to Bovine Serum Albumin disposed adjacent the rate-controlling element, forming a complex”, the “Half Life (T)” value ([2]; Blood or Tissue BSA Concentration 1%) was 1.27 h, the “Half Life (T)” value ([2]; Blood or Tissue BSA Concentration 2%) was 2.02 h and the “Half Life (T)” value ([2]; Blood or Tissue BSA Concentration 4%) was 6.07 h. The “Half Life (T)” value ([2]; Blood or Tissue BSA Concentration 6%) was 32.07 h and the “Stability of the complex compared to mycophenolic acid alone” value ([2]; metabolism to glucuronide derivative) was “more stable than mycophenolic acid alone”.
